Measured values: ChEMBL document CHEMBL1151757, “Synthesis, radiosynthesis, and biological evaluation of fluorine-18-labeled 2beta-carbo(fluoroalkoxy)-3beta-(3'-((Z)-2-haloethenyl)phenyl)nortropanes: candidate radioligands for in vivo imaging of the serotonin transporter with positron emission tomography” (J Med Chem, 2008)

Legend:
Caudate [1] = test: Drug uptake in anesthetized cynomolgus monkey brain caudate after 175 mins postinjection; type: ADME, organism-based, Macaca fascicularis, Caudate nucleus; conditions: in vivo
Midbrain [2] = test: Drug uptake in anesthetized cynomolgus monkey brain midbrain after 65 mins postinjection; type: ADME, organism-based, Macaca fascicularis; parameters: unit not given here; conditions: in vivo
Pons [3] = test: Drug uptake in anesthetized cynomolgus monkey brain pons after 175 mins postinjection; type: ADME, organism-based, Macaca fascicularis; conditions: in vivo
[4] = Ratio of drug uptake in medulla to cerebellum in anesthetized cynomolgus monkey after 135 mins postinjection; type: ADME, organism-based, Macaca fascicularis; conditions: in vivo, 2.25 h
Thalamus [5] = test: Drug uptake in anesthetized cynomolgus monkey brain thalamus after 0.5 mins postinjection; type: ADME, organism-based, Macaca fascicularis; conditions: in vivo
Caudate [6] = test: Drug uptake in anesthetized cynomolgus monkey brain caudate after 115 mins postinjection; type: ADME, organism-based, Macaca fascicularis, Caudate nucleus; conditions: in vivo
Medulla [7] = test: Drug uptake in anesthetized cynomolgus monkey brain medulla after 2.5 mins postinjection; type: ADME, organism-based, Macaca fascicularis; conditions: in vivo
Putamen [8] = test: Drug uptake in anesthetized cynomolgus monkey brain putamen after 15.5 mins postinjection; type: ADME, organism-based, Macaca fascicularis; parameters: unit not given here; conditions: in vivo
Caudate [9] = test: Drug uptake in anesthetized cynomolgus monkey brain caudate after 125 mins postinjection; type: ADME, organism-based, Macaca fascicularis, Caudate nucleus; conditions: in vivo
Thalamus [10] = test: Drug uptake in anesthetized cynomolgus monkey brain thalamus after 75 mins postinjection; type: ADME, organism-based, Macaca fascicularis; parameters: unit not given here; conditions: in vivo, 1.25 h
[11] = Drug uptake in anesthetized cynomolgus monkey brain cerebellum after 35 mins postinjection; type: ADME, organism-based, Macaca fascicularis; conditions: in vivo
Midbrain [12] = test: Drug uptake in anesthetized cynomolgus monkey brain midbrain after 9.5 mins postinjection; type: ADME, organism-based, Macaca fascicularis; parameters: unit not given here; conditions: in vivo
[13] = Ratio of drug uptake in midbrain to cerebellum in anesthetized cynomolgus monkey after 225 mins postinjection; type: ADME, organism-based, Macaca fascicularis; conditions: in vivo, 3.75 h
[14] = Ratio of drug uptake in occipital lobe to cerebellum in anesthetized cynomolgus monkey after 105 mins postinjection; type: ADME, organism-based, Macaca fascicularis; conditions: in vivo, 1.75 h
Midbrain [15] = test: Drug uptake in anesthetized cynomolgus monkey brain midbrain after 22.5 mins postinjection; type: ADME, organism-based, Macaca fascicularis; parameters: unit not given here; conditions: in vivo, 0.375 h
Putamen [16] = test: Drug uptake in anesthetized cynomolgus monkey brain putamen after 65 mins postinjection; type: ADME, organism-based, Macaca fascicularis; parameters: unit not given here; conditions: in vivo
Midbrain [17] = test: Drug uptake in anesthetized cynomolgus monkey brain midbrain after 95 mins postinjection; type: ADME, organism-based, Macaca fascicularis; parameters: unit not given here; conditions: in vivo
[18] = Drug uptake in anesthetized cynomolgus monkey brain frontal lobe after 27.5 mins postinjection; type: ADME, organism-based, Macaca fascicularis; conditions: in vivo
[19] = Drug uptake in anesthetized cynomolgus monkey brain occipital lobe after 175 mins postinjection; type: ADME, organism-based, Macaca fascicularis; conditions: in vivo
[20] = Ratio of drug uptake in putamen to cerebellum in anesthetized cynomolgus monkey after 65 mins postinjection; type: ADME, organism-based, Macaca fascicularis; conditions: in vivo
Caudate [21] = test: Drug uptake in anesthetized cynomolgus monkey brain caudate after 4.5 mins postinjection; type: ADME, organism-based, Macaca fascicularis, Caudate nucleus; conditions: in vivo, 0.075 h
Caudate [22] = test: Drug uptake in anesthetized cynomolgus monkey brain caudate after 135 mins postinjection; type: ADME, organism-based, Macaca fascicularis, Caudate nucleus; conditions: in vivo, 2.25 h
Thalamus [23] = test: Drug uptake in anesthetized cynomolgus monkey brain thalamus after 215 mins postinjection; type: ADME, organism-based, Macaca fascicularis; parameters: unit not given here; conditions: in vivo
[24] = Drug uptake in anesthetized cynomolgus monkey brain frontal lobe after 2.5 mins postinjection; type: ADME, organism-based, Macaca fascicularis; conditions: in vivo
[25] = Drug uptake in anesthetized cynomolgus monkey brain frontal lobe after 155 mins postinjection; type: ADME, organism-based, Macaca fascicularis; conditions: in vivo
Medulla [26] = test: Drug uptake in anesthetized cynomolgus monkey brain medulla after 22.5 mins postinjection; type: ADME, organism-based, Macaca fascicularis; conditions: in vivo, 0.375 h
[27] = Ratio of drug uptake in occipital lobe to cerebellum in anesthetized cynomolgus monkey after 115 mins postinjection; type: ADME, organism-based, Macaca fascicularis; conditions: in vivo
[28] = Ratio of drug uptake in frontal lobe to cerebellum in anesthetized cynomolgus monkey after 235 mins postinjection; type: ADME, organism-based, Macaca fascicularis; conditions: in vivo
[29] = Drug uptake in anesthetized cynomolgus monkey brain cerebellum after 12.5 mins postinjection; type: ADME, organism-based, Macaca fascicularis; conditions: in vivo
[30] = Drug uptake in anesthetized cynomolgus monkey brain occipital lobe after 235 mins postinjection; type: ADME, organism-based, Macaca fascicularis; conditions: in vivo
[31] = Drug uptake in anesthetized cynomolgus monkey brain frontal lobe after 95 mins postinjection; type: ADME, organism-based, Macaca fascicularis; conditions: in vivo
[32] = Drug uptake in anesthetized cynomolgus monkey brain occipital lobe after 105 mins postinjection; type: ADME, organism-based, Macaca fascicularis; conditions: in vivo, 1.75 h
[33] = Drug uptake in anesthetized cynomolgus monkey brain frontal lobe after 6.5 mins postinjection; type: ADME, organism-based, Macaca fascicularis; conditions: in vivo
[34] = Ratio of drug uptake in midbrain to cerebellum in anesthetized cynomolgus monkey after 2.5 mins postinjection; type: ADME, organism-based, Macaca fascicularis; conditions: in vivo
Putamen [35] = test: Drug uptake in anesthetized cynomolgus monkey brain putamen after 225 mins postinjection; type: ADME, organism-based, Macaca fascicularis; conditions: in vivo, 3.75 h
[36] = Drug uptake in anesthetized cynomolgus monkey brain cerebellum after 225 mins postinjection; type: ADME, organism-based, Macaca fascicularis; conditions: in vivo, 3.75 h
[37] = Ratio of drug uptake in pons to cerebellum in anesthetized cynomolgus monkey after 145 mins postinjection; type: ADME, organism-based, Macaca fascicularis; conditions: in vivo
[38] = Drug uptake in anesthetized cynomolgus monkey brain frontal lobe after 22.5 mins postinjection; type: ADME, organism-based, Macaca fascicularis; conditions: in vivo, 0.375 h
[39] = Drug uptake in anesthetized cynomolgus monkey brain occipital lobe after 55 mins postinjection; type: ADME, organism-based, Macaca fascicularis; conditions: in vivo
Caudate [40] = test: Drug uptake in anesthetized cynomolgus monkey brain caudate after 12.5 mins postinjection; type: ADME, organism-based, Macaca fascicularis, Caudate nucleus; conditions: in vivo
Caudate [41] = test: Drug uptake in anesthetized cynomolgus monkey brain caudate after 3.5 mins postinjection; type: ADME, organism-based, Macaca fascicularis, Caudate nucleus; conditions: in vivo
Caudate [42] = test: Drug uptake in anesthetized cynomolgus monkey brain caudate after 0.5 mins postinjection; type: ADME, organism-based, Macaca fascicularis, Caudate nucleus; conditions: in vivo
[43] = Ratio of drug uptake in thalamus to cerebellum in anesthetized cynomolgus monkey after 155 mins postinjection; type: ADME, organism-based, Macaca fascicularis; conditions: in vivo
Pons [44] = test: Drug uptake in anesthetized cynomolgus monkey brain pons after 155 mins postinjection; type: ADME, organism-based, Macaca fascicularis; conditions: in vivo
[45] = Ratio of drug uptake in frontal lobe to cerebellum in anesthetized cynomolgus monkey after 75 mins postinjection; type: ADME, organism-based, Macaca fascicularis; conditions: in vivo, 1.25 h
Medulla [46] = test: Drug uptake in anesthetized cynomolgus monkey brain medulla after 6.5 mins postinjection; type: ADME, organism-based, Macaca fascicularis; conditions: in vivo
[47] = Ratio of drug uptake in medulla to cerebellum in anesthetized cynomolgus monkey after 65 mins postinjection; type: ADME, organism-based, Macaca fascicularis; conditions: in vivo
Thalamus [48] = test: Drug uptake in anesthetized cynomolgus monkey brain thalamus after 175 mins postinjection; type: ADME, organism-based, Macaca fascicularis; parameters: unit not given here; conditions: in vivo
[49] = Ratio of drug uptake in caudate to cerebellum in anesthetized cynomolgus monkey after 225 mins postinjection; type: ADME, organism-based, Macaca fascicularis; conditions: in vivo, 3.75 h
[50] = Drug uptake in anesthetized cynomolgus monkey brain cerebellum after 235 mins postinjection; type: ADME, organism-based, Macaca fascicularis; conditions: in vivo
Caudate [51] = test: Drug uptake in anesthetized cynomolgus monkey brain caudate after 15.5 mins postinjection; type: ADME, organism-based, Macaca fascicularis, Caudate nucleus; conditions: in vivo
Midbrain [52] = test: Drug uptake in anesthetized cynomolgus monkey brain midbrain after 165 mins postinjection; type: ADME, organism-based, Macaca fascicularis; conditions: in vivo, 2.75 h
Midbrain [53] = test: Drug uptake in anesthetized cynomolgus monkey brain midbrain after 15.5 mins postinjection; type: ADME, organism-based, Macaca fascicularis; parameters: unit not given here; conditions: in vivo
[54] = Ratio of drug uptake in medulla to cerebellum in anesthetized cynomolgus monkey after 1.5 mins postinjection; type: ADME, organism-based, Macaca fascicularis; conditions: in vivo, 0.025 h
Midbrain [55] = test: Drug uptake in anesthetized cynomolgus monkey brain midbrain after 3.5 mins postinjection; type: ADME, organism-based, Macaca fascicularis; parameters: unit not given here; conditions: in vivo
[56] = Ratio of drug uptake in pons to cerebellum in anesthetized cynomolgus monkey after 105 mins postinjection; type: ADME, organism-based, Macaca fascicularis; conditions: in vivo, 1.75 h
Putamen [57] = test: Drug uptake in anesthetized cynomolgus monkey brain putamen after 95 mins postinjection; type: ADME, organism-based, Macaca fascicularis; parameters: unit not given here; conditions: in vivo
[58] = Drug uptake in anesthetized cynomolgus monkey brain cerebellum after 4.5 mins postinjection; type: ADME, organism-based, Macaca fascicularis; conditions: in vivo, 0.075 h
[59] = Drug uptake in anesthetized cynomolgus monkey brain occipital lobe after 4.5 mins postinjection; type: ADME, organism-based, Macaca fascicularis; conditions: in vivo, 0.075 h
[60] = Drug uptake in anesthetized cynomolgus monkey brain cerebellum after 95 mins postinjection; type: ADME, organism-based, Macaca fascicularis; conditions: in vivo

O=C(OCCC[18F])C1C2CCC(CC1c1cccc(/C=C\Br)c1)N2 (stereo not given)
Drug uptake (Caudate [1]): 4.04
Drug uptake (Midbrain [2]): 6.06
Drug uptake (Pons [3]): 3.78
Ratio [4]: 1.7
Drug uptake (Thalamus [5]): 0.01
Drug uptake (Caudate [6]): 4.71
Drug uptake (Medulla [7]): 1.62
Drug uptake (Putamen [8]): 5.53
Drug uptake (Caudate [9]): 4.63
Drug uptake (Thalamus [10]): 5.33
Drug uptake [11]: 5.43
Drug uptake (Midbrain [12]): 5.04
Ratio [13]: 2.1
Ratio [14]: 1.1
Drug uptake (Midbrain [15]): 5.88
Drug uptake (Putamen [16]): 5.78
Drug uptake (Midbrain [17]): 5.79
Drug uptake [18]: 3.8
Drug uptake [19]: 3.06
Ratio [20]: 1.3
Drug uptake (Caudate [21]): 2.17
Drug uptake (Caudate [22]): 4.43
Drug uptake (Thalamus [23]): 3.62
Drug uptake [24]: 0.79
Drug uptake [25]: 2.65
Drug uptake (Medulla [26]): 6.29
Ratio [27]: 1.1
Ratio [28]: 1.1
Drug uptake [29]: 5.72
Drug uptake [30]: 2.53
Drug uptake [31]: 3.31
Drug uptake [32]: 3.91
Drug uptake [33]: 2.95
Ratio [34]: 1
Drug uptake (Putamen [35]): 3.51
Drug uptake [36]: 2.03
Ratio [37]: 1.6
Drug uptake [38]: 3.74
Drug uptake [39]: 4.59
Drug uptake (Caudate [40]): 4.23
Drug uptake (Caudate [41]): 1.7
Drug uptake (Caudate [42]): 0.01
Ratio [43]: 1.6
Drug uptake (Pons [44]): 4.03
Ratio [45]: 0.9
Drug uptake (Medulla [46]): 5.26
Ratio [47]: 1.3
Drug uptake (Thalamus [48]): 4
Ratio [49]: 1.7
Drug uptake [50]: 1.87
Drug uptake (Caudate [51]): 4.3
Drug uptake (Midbrain [52]): 5.06
Drug uptake (Midbrain [53]): 5.7
Ratio [54]: 0.9
Drug uptake (Midbrain [55]): 2.59
Ratio [56]: 1.3
Drug uptake (Putamen [57]): 5.28
Drug uptake [58]: 3.51
Drug uptake [59]: 2.44
Drug uptake [60]: 3.81
